In PubChem BioAssay (NCI):
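Assay format: 96-well plates, 48-hour exposure. GI50 is the concentration that inhibits growth by half. The concentration for full growth arrest is given as TGI.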

What was measured:
Assay in all cases: growth of human tumour cells (NCI), 48 h
BT-549 breast = system: BT-549 breast
HOP-62 NSCLC = system: HOP-62 NSCLC
UO-31 renal = system: UO-31 renal
HL-60(TB) leukemia = system: HL-60(TB) leukemia
NCI-H460 lung = system: NCI-H460 lung
SF-295 CNS = system: SF-295 CNS
OVCAR-8 ovarian = system: OVCAR-8 ovarian
KM12 colon = system: KM12 colon
NCI-H23 lung = system: NCI-H23 lung
A498 renal = system: A498 renal
NCI-H522 lung = system: NCI-H522 lung
OVCAR-4 ovarian = system: OVCAR-4 ovarian
U251 CNS = system: U251 CNS
EKVX NSCLC = system: EKVX NSCLC
CCRF-CEM leukemia = system: CCRF-CEM leukemia
MCF7 breast = system: MCF7 breast
MDA-MB-468 breast = system: MDA-MB-468 breast
RPMI-8226 leukemia = system: RPMI-8226 leukemia
PC-3 prostate = system: PC-3 prostate
CAKI-1 renal = system: CAKI-1 renal
SK-MEL-28 melanoma = system: SK-MEL-28 melanoma
LOX IMVI melanoma = system: LOX IMVI melanoma
RXF 393 renal = system: RXF 393 renal
SK-MEL-5 melanoma = system: SK-MEL-5 melanoma
IGROV1 ovarian = system: IGROV1 ovarian
HCT-15 colon = system: HCT-15 colon
HT29 colon = system: HT29 colon
SW-620 colon = system: SW-620 colon
NCI-H226 lung = system: NCI-H226 lung
SNB-75 CNS = system: SNB-75 CNS
OVCAR-3 ovarian = system: OVCAR-3 ovarian
K-562 leukemia = system: K-562 leukemia
TK-10 renal = system: TK-10 renal
SF-268 CNS = system: SF-268 CNS
HCT-116 colon = system: HCT-116 colon
UACC-257 melanoma = system: UACC-257 melanoma
HCC-2998 colon = system: HCC-2998 colon
MDA-MB-231 breast = system: MDA-MB-231 breast
MOLT-4 leukemia = system: MOLT-4 leukemia
SK-OV-3 ovarian = system: SK-OV-3 ovarian
UACC-62 melanoma = system: UACC-62 melanoma
COLO 205 colon = system: COLO 205 colon
MALME-3M melanoma = system: MALME-3M melanoma
SF-539 CNS = system: SF-539 CNS
ACHN renal = system: ACHN renal
786-0 renal = system: 786-0 renal
NCI/ADR-RES ovarian = system: NCI/ADR-RES ovarian
SR leukemia = system: SR leukemia
HOP-92 NSCLC = system: HOP-92 NSCLC
T-47D breast = system: T-47D breast
DU-145 prostate = system: DU-145 prostate
M14 melanoma = system: M14 melanoma
OVCAR-5 ovarian = system: OVCAR-5 ovarian
HS 578T breast = system: HS 578T breast
SNB-19 CNS = system: SNB-19 CNS
SN12C renal = system: SN12C renal
MDA-MB-435 = system: MDA-MB-435
A549 NSCLC = system: A549 NSCLC
SK-MEL-2 melanoma = system: SK-MEL-2 melanoma

## CC(=O)Nc1nc(-c2ccc(N3CCN(C)CC3)c(NS(=O)(=O)c3ccc(C(F)(F)F)cc3)c2)cs1
BT-549 breast
  GI50: 5.83 µM
  TGI: 12.8 µM
HOP-62 NSCLC
  GI50: 9.06 µM
  TGI: 17.2 µM
UO-31 renal
  GI50: 6.13 µM
  TGI: 12.6 µM
HL-60(TB) leukemia
  GI50: 3.35 µM
  TGI: 19.1 µM
NCI-H460 lung
  GI50: 6.77 µM
  TGI: 14.8 µM
SF-295 CNS
  GI50: 6.51 µM
  TGI: 13.4 µM
OVCAR-8 ovarian
  GI50: 8.2 µM
  TGI: 23.9 µM
KM12 colon
  GI50: 7.55 µM
  TGI: 16.4 µM
NCI-H23 lung
  GI50: 8.11 µM
  TGI: 15.8 µM
A498 renal
  GI50: 6.64 µM
  TGI: 13.5 µM
NCI-H522 lung
  GI50: 3.62 µM
  TGI: 10.8 µM
OVCAR-4 ovarian
  GI50: 6.72 µM
  TGI: 14.6 µM
U251 CNS
  GI50: 7.52 µM
  TGI: 15 µM
EKVX NSCLC
  GI50: 7.41 µM
  TGI: 14.5 µM
CCRF-CEM leukemia
  GI50: 1.97 µM
  TGI: 9.86 µM
MCF7 breast
  GI50: 2.58 µM
  TGI: 10.6 µM
MDA-MB-468 breast
  GI50: 2.04 µM
  TGI: 7.95 µM
RPMI-8226 leukemia
  GI50: 2.16 µM
  TGI: 53 µM
PC-3 prostate
  GI50: 6.33 µM
  TGI: 17.2 µM
CAKI-1 renal
  GI50: 3.91 µM
  TGI: 11 µM
SK-MEL-28 melanoma
  GI50: 7.72 µM
  TGI: 14.7 µM
LOX IMVI melanoma
  GI50: 2.46 µM
  TGI: 8.87 µM
RXF 393 renal
  GI50: 2.61 µM
  TGI: 9.24 µM
SK-MEL-5 melanoma
  GI50: 6 µM
  TGI: 12.5 µM
IGROV1 ovarian
  GI50: 6.41 µM
  TGI: 13 µM
HCT-15 colon
  GI50: 3.18 µM
  TGI: 10.8 µM
HT29 colon
  GI50: 4.77 µM
  TGI: 16 µM
SW-620 colon
  GI50: 3.21 µM
  TGI: 11.3 µM
NCI-H226 lung
  GI50: 8.25 µM
  TGI: 19.1 µM
SNB-75 CNS
  GI50: 2.44 µM
  TGI: 9.48 µM
OVCAR-3 ovarian
  GI50: 3.06 µM
  TGI: 10.6 µM
K-562 leukemia
  GI50: 5.47 µM
  TGI: 53 µM
TK-10 renal
  GI50: 7.04 µM
  TGI: 14 µM
SF-268 CNS
  GI50: 6.99 µM
  TGI: 16.4 µM
HCT-116 colon
  GI50: 3.01 µM
  TGI: 11.9 µM
UACC-257 melanoma
  GI50: 6.76 µM
  TGI: 14 µM
HCC-2998 colon
  GI50: 7.51 µM
  TGI: 14.5 µM
MDA-MB-231 breast
  GI50: 5.78 µM
  TGI: 12.4 µM
MOLT-4 leukemia
  GI50: 5.34 µM
  TGI: 23.6 µM
SK-OV-3 ovarian
  GI50: 10 µM
  TGI: 19.6 µM
UACC-62 melanoma
  GI50: 6.08 µM
  TGI: 12.6 µM
COLO 205 colon
  GI50: 7.95 µM
  TGI: 18.7 µM
MALME-3M melanoma
  GI50: 6.73 µM
  TGI: 13.5 µM
SF-539 CNS
  GI50: 4.12 µM
  TGI: 10.8 µM
ACHN renal
  GI50: 4.67 µM
  TGI: 11.1 µM
786-0 renal
  GI50: 5.18 µM
  TGI: 12.6 µM
NCI/ADR-RES ovarian
  GI50: 6.97 µM
  TGI: 21.6 µM
SR leukemia
  GI50: 1.98 µM
  TGI: 37.6 µM
HOP-92 NSCLC
  GI50: 5.34 µM
  TGI: 14.1 µM
T-47D breast
  GI50: 4.71 µM
  TGI: 13.2 µM
DU-145 prostate
  GI50: 6.51 µM
  TGI: 14.5 µM
M14 melanoma
  GI50: 7.25 µM
  TGI: 17.1 µM
OVCAR-5 ovarian
  GI50: 7.63 µM
  TGI: 14.7 µM
HS 578T breast
  GI50: 5.77 µM
  TGI: 20.2 µM
SNB-19 CNS
  GI50: 7.82 µM
  TGI: 14.8 µM
SN12C renal
  GI50: 6.19 µM
  TGI: 12.7 µM
MDA-MB-435
  GI50: 4.08 µM
  TGI: 12.6 µM
A549 NSCLC
  GI50: 7.24 µM
  TGI: 16.3 µM
SK-MEL-2 melanoma
  GI50: 7.27 µM
  TGI: 14.4 µM
